Values of other authors in patent US20120121700A1, “PHARMACEUTICAL FORMULATIONS COMPRISING VALGANCICLOVIR” (priority 2010, published 2012).

Settings: oral administration; background statement taken from U.S. Pat. No. 6,083,953

Row | Structure (SMILES) | bioavailability when administered orally
1 | CC(C)[C@H](N)C(=O)OCC(CO)OCn1cnc2c(=O)[nH]c(N)nc21.Cl (stereo partly drawn) [Valganciclovir hydrochloride, L-valine, 2-[(2-amino-1,6-dihydro-6-oxo-9H-purin-9-yl)methoxy]-3-hydroxypropyl ester, monohydrochloride] | better bioavailability than ganciclovir given orally
2 | Nc1nc(O)c2ncn(COC(CO)CO)c2n1 [gancilcovir, ganciclovir] | poor
